Results from patent publication US9889225B2 (KAOHSIUNG MEDICAL UNIVERSITY, priority 2010, dated 2018).

How the values were obtained:
[1] = system: bone morphogenetic protein-2 (BMP-2); settings: 6 weeks after implantation, versus PLGA group
Description: (§1) For anesthesia, an intraperitoneal injection with a mixture of ketamin hydrochloride (100 mg/ml per 80 mg/kg body weight) and xylazin 2% (12 mg/kg body weight) were used. The left thigh was shaved and a 3 cm lateral longitudinal skin incision was made. The lateral approach was performed posterior to vastus lateralis without damaging the muscle. A bone defect, 0.1 cm×0.4 cm in size, on left femur was created at middle portion of shaft by using a 0.5 mm cone-shape bur. After that, the implant was inserted into the cavity and covered with […] ™ (Johnson & Johnson Medical Limited, Neuchatel, Switzerland) to fix the implant in place. Radiographs were taken to verify the correct position of the bone defect using the great trochanter as control point. At the end of operation, skin wounds were sutured. Six weeks after operation, animals were sacrificed for biomechanical and histological analysis.
The 5 μm thick sections of femoral bone were incubated in 0.1% EDTA for 10 min at 100 degree for antigen retrieval. Immunohistochemistry (IHC) was performed using the Immuno Cruz Staining System (Santa Cruz). After incubating with 5% BSA/PBS (Sigma, Saint Louis, Mo., USA) blocking solution for 2 h at room temperature, sections were labeled with human-specific anti-BMP2 (dilution 1:50; Abcam) overnight at 4 degree in a humid chamber. […]

rat femur bone defect [2] = settings: 6 weeks after implantation
Description: as §1
Femoral bone specimens were harvested for histological study 6 weeks after implantation. […] The 5-mm thick bone sections were removed and stained with hematoxylin and eosin (H&E; Santa Cruz, Santa Cruz, Calif., USA). A microscope with 10×, 100×, 400× magnification, equipped with a digital CCD camera (Eclipse 50i; Nikon Inc., Mich., USA), were used for images of the sections.

rat femur bone defect [3] = test: Rat femur bone defect model, micro-CT trabecular bone volume; settings: 6 weeks after surgery; for trabecular bone volume in the femoral defect site: normalized with total defect length
Description: For anesthesia, an intraperitoneal injection with a mixture of ketamin hydrochloride (100 mg/ml per 80 mg/kg body weight) and xylazin 2% (12 mg/kg body weight) were used. The left thigh was shaved and a 3 cm lateral longitudinal skin incision was made. The lateral approach was performed posterior to vastus lateralis without damaging the muscle. A bone defect, 0.1 cm×0.4 cm in size, on left femur was created at middle portion of shaft by using a 0.5 mm cone-shape bur. After that, the implant was inserted into the cavity and covered with […] ™ (Johnson & Johnson Medical Limited, Neuchatel, Switzerland) to fix the implant in place. Radiographs were taken to verify the correct position of the bone defect using the great trochanter as control point. At the end of operation, skin wounds were sutured.
Animals were anesthesia during micro-CT images scanning. Small animal micro-CT (Skyscan 1076, Bruker, Belgium) was employed for analyzing bone repair process in living animals and calculated by image software (CTAn) at the desired time point. The scan conditions were set at an aluminum filter of 0.5mm, 35 μm scanning resolution, x-ray voltage of 50 KV, x-ray current of 200 mA and an exposure time of 600 m-seconds. The area used for analysis began at the defect site close to femoral head and through all the defect area. Total volume indicated the inner area of cortical bone. Trabecular bone volume indicated the total trabecular bone within the total volume. Trabecular bone volume was normalized with total defect length in each rat.

rat femur bone defect [4] = test: Rat femur bone defect model, 3-point bending test; settings: post-surgery 6 weeks
Description: as §1
The present invention employed 3-point bending test to analyze the mechanical property at the end of experiment. Counterlateral femoral bone served as a non-defect femoral bone.
Mechanical property of bone: 3-point bending test: For testing the mechanical property of the repaired femoral defect, the Instron 4466 (model 4465; Instron, Canton, Mass.) was employed for mechanical tests. The rat femur was removed from body and all the connective tissues were stripped off. For 3-point bending, the femur bone was positioned onto two supports, and a single-pronged loading device was applied to the opposite surface at a point precisely in the middle between the two supports. The distance between two supports was 4 cm. Loading force was 1N with speed of 1 mm/min. The experimental procedure involved the measurement of the deflection of the bone at the point of load application and the concurrent measurement of the load, yielding a force-deflection graph. Parameters obtained from this graph include whole-bone stiffness (defined as the slope of the early, linear portion of the load-deflection curve), yield point, maximal load and fracture load. The Young's modulus of the material from the geometry of the loading device and the stiffness of the bone were measured. The data calculations were all based on beam theory and the Hooke's law.

In the case of “poly(lactic-co-glycolic acid) cross-linked alendronate [PLGA-ALN]”, the “immunolocalized BMP-2 in the repaired cortical bone and trabecular bone” value [1] is reported as “predominant”, the “cortical bone thickness and trabecular bone (H&E) versus PLGA group” value (rat femur bone defect [2]) is reported as “Thicker cortical bone and more trabecular bone” and the “trabecular bone volume relative to the control or PLGA group” value (rat femur bone defect [3]; 5 mg implant) is reported as 2 times. The “trabecular bone volume in the femoral defect site” value (rat femur bone defect [3]; 5 mg implant) was 1.413±0.21, the “trabecular bone volume relative to the control or PLGA group” value (rat femur bone defect [3]; 10 mg implant) was 2 times and the “trabecular bone volume in the femoral defect site” value (rat femur bone defect [3]; 10 mg implant) was 1.45±0.35. For the same substance, the “Young's modulus” value (rat femur bone defect [4]; 5 mg implant) was 0.43±0.03 GPa, the maximal strength (rat femur bone defect [4]; 5 mg implant) was 172.5±18.2 N and the total energy absorption (rat femur bone defect [4]; 5 mg implant) was 106.43±15.36 mm*N. The “Young's modulus” value (rat femur bone defect [4]; 10 mg implant) was 0.51±0.03 GPa, the maximal strength (rat femur bone defect [4]; 10 mg implant) was 191.7±11.7 N and the total energy absorption (rat femur bone defect [4]; 10 mg implant) was 110.71±9.95 mm*N.
